Assay results published in patent US8012949B2, “Bisphosphonate compounds and methods with enhanced potency for multiple targets including FPPS, GGPPS, and DPPS” (The Board of Trustees of the University of Illinois, priority 2004, dated 2011).
pIC50: −log10 of the molar value. Where two headings read alike, the source gives them in different places.

Assays:
[1] = test system: SF-268 (central nervous system glioblastoma); assay: SF-268 cell growth inhibition (MTT); assay type: cell-based, human; details: Table 1, experimental
Source text: (§1) Cell Growth Inhibition Assays. […] A broth microdilution method was used to determine IC50 values for growth inhibition by each bisphosphonate. […] NBPs were typically initially dissolved in H2O (0.01 M) while NNBPs were typically dissolved in DMSO (0.01 M).
(§2) GraphPad PRISM® version 4.0 software for windows (GraphPad Software Inc., San Diego, Calif., www.graphpad.com) was used to fit the data to a rectangular hyperbolic function: I=(ImaxC)/(IC50+C); […]

[2] = test system: NCI-H460 (lung large cell); assay: NCI-H460 cell growth inhibition (MTT); assay type: cell-based, human; details: Table 1, experimental
Source text: as §1, §2

[3] = molecular target: T1, human DPPS (Homo sapiens, UniProt Q5T2R2); assay: human DPPS enzyme inhibition; assay type: biochemical; details: Table 1, experimental
T1 construct: made in house
T1 sequence (Q5T2R2 1-415): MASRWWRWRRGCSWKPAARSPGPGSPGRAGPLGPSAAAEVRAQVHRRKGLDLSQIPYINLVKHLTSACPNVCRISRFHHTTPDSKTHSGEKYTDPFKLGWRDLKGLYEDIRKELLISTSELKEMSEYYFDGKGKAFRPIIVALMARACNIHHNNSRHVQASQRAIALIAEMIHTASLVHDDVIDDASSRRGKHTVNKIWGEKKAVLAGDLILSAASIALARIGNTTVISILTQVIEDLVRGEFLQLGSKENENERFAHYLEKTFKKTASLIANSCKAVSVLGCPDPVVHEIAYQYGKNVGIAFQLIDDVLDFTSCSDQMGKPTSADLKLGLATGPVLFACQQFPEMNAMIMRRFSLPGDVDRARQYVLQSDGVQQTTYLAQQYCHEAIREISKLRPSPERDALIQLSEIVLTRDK
T1 sequence (Q86YH6 1-399 partner): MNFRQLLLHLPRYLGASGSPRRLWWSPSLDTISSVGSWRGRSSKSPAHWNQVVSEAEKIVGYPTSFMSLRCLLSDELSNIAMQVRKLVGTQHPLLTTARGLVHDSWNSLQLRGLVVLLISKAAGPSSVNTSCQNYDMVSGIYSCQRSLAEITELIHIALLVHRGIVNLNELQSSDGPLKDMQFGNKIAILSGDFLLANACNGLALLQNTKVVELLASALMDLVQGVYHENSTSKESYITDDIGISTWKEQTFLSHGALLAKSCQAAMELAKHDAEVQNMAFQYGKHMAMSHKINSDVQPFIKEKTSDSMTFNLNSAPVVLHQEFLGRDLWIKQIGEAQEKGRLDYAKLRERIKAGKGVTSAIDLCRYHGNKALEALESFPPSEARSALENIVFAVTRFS
Source text: To test our polypharmaceutical hypothesis, we expressed three enzymes: human FPPS, GGPPS and DPPS, and tested each for their inhibition by a series of bisphosphonates.

[4] = test system: MCF-7 (breast adenocarcinoma); assay: MCF-7 cell growth inhibition (MTT), incl. FOH/GGOH rescue; assay type: cell-based, human; details: for MCF7 Cell pIC50: Table 3, determined in this work; for IC50: MCF7
Source text: as §1
GraphPad PRISM® version 4.0 software for windows (GraphPad Software Inc., San Diego, Calif., www.graphpad.com) was used to fit the data to a rectangular hyperbolic function: I=(ImaxC)/(IC50+C);
For the “rescue” experiments, stock solutions of FOH or GGOH were prepared (in ethanol) and the requisite amounts added to the incubation media to produce a fixed 20 μM concentration.

[5] = test system: Vγ2Vδ2 T cells; assay: γδ T cell activation (TNF-α release and proliferation); assay type: cell-based, human; details: Table 2, -log10(value, M)
Procedure: γδ T Cell Assays. Vγ2Vδ2 T cell TNF-α release and proliferation were performed basically as described previously^1. Briefly, to measure bioactivity for Vγ2Vδ2 T cells, the CD4^+ JN.24, CD4^+ HF.2, CD8αα^+ 12G12, or the CD4^−8^− HD.108 Vγ2Vδ2 T cell clones were stimulated with phosphoantigens in the presence of CP.EBV (an EBV transformed B cell line) for CD4^+ clones or Va-2 (a transformed fibroblast) for CD8αα^+ and CD4^−8^− clones. CP.EBV and Va-2 were fixed with 0.05% glutaraldehyde (EM grade, Sigma, Mo.) for use as APCs. […] Curve fitting minima for each experiment (e.g. TNF-α release from JN.24 cells) were determined using the Global Fitting technique, as implemented in Prism 4.0. Curve fitting maxima were optimized for each individual compound without the use of any constraints.

NCCCC(O)(P(=O)(O)O)P(=O)(O)O [BPH-1, reference compound]
SF-268 pIC50 (M) [1]: 3.5 M | NCI-H460 pIC50 (M) [2]: 3.5 M | DPPS pKi [3]: 6.3 | MCF-7 pIC50 (M) ([4]; Table 1, experimental): 3.3 M | MCF7 Cell pIC50 [4]: 3.31

NCCC(O)(P(=O)(O)O)P(=O)(O)O [BPH-5, reference compound]
SF-268 pIC50 (M) [1]: 3.5 M | NCI-H460 pIC50 (M) [2]: 4.0 M | DPPS pKi [3]: 6.3 | MCF-7 pIC50 (M) ([4]; Table 1, experimental): 3.9 M | MCF7 Cell pIC50 [4]: 3.85

O=P(O)(O)C(O)(Cc1c[nH]cn1)P(=O)(O)O [BPH-18, reference compound]
MCF7 Cell pIC50 [4]: 5.41

CCCCCN(C)CCC(O)(P(=O)(O)O)P(=O)(O)O [BPH-24, reference compound]
SF-268 pIC50 (M) [1]: 3.8 M | NCI-H460 pIC50 (M) [2]: 3.7 M | DPPS pKi [3]: 7.3 | MCF-7 pIC50 (M) ([4]; Table 1, experimental): 3.7 M

O=P(O)(O)C(NC1CCCCCC1)P(=O)(O)O [BPH-31, reference compound]
MCF7 Cell pIC50 [4]: 4.30

O=P(O)(O)C(N1CCCCCC1)P(=O)(O)O [BPH-57, reference compound]
MCF7 Cell pIC50 [4]: 3.60

O=P(O)(O)C(Cc1nccs1)P(=O)(O)O [BPH-58, reference compound]
MCF7 Cell pIC50 [4]: 3.48

O=P(O)(O)C(N1CCCCC1)P(=O)(O)O [BPH-72, reference compound]
MCF7 Cell pIC50 [4]: 3.34

O=P(O)(O)C(O)(Cn1ccnc1)P(=O)(O)O [BPH-91, reference compound]
SF-268 pIC50 (M) [1]: 4.8 M | NCI-H460 pIC50 (M) [2]: 4.8 M | DPPS pKi [3]: 7.4 | MCF-7 pIC50 (M) ([4]; Table 1, experimental): 4.7 M | MCF7 Cell pIC50 [4]: 4.81

CN(CCc1ccccc1)CCC(O)(P(=O)(O)O)P(=O)(O)O [BPH-208, reference compound]
MCF7 Cell pIC50 [4]: 4.38

CN(CCCc1ccccc1)CCC(O)(P(=O)(O)O)P(=O)(O)O [BPH-209, reference compound]
MCF7 Cell pIC50 [4]: 4.01

CN(CCCCc1ccccc1)CCC(O)(P(=O)(O)O)P(=O)(O)O [BPH-210, reference compound]
MCF7 Cell pIC50 [4]: 4.08

CN(CCOc1ccccc1)CCC(O)(P(=O)(O)O)P(=O)(O)O [BPH-219, reference compound]
MCF7 Cell pIC50 [4]: 4.93

O=P(O)(O)C(O)(Cc1cnc2ccccn12)P(=O)(O)O [BPH-261]
SF-268 pIC50 (M) [1]: 4.9 M | NCI-H460 pIC50 (M) [2]: 4.8 M | DPPS pKi [3]: 6.8 | MCF-7 pIC50 (M) ([4]; Table 1, experimental): 4.8 M

O=P(O)(O)C(Cc1cccnc1)P(=O)(O)O [BPH-290]
γδ T Cell Avg pED50 (M) [5]: 4.21 M | MCF-7 Cell pIC50 (M) ([4]; Table 2, -log10(value, M)): 3.47 M

O=P(O)(O)C(O)(C[n+]1cccc(F)c1)P(=O)(O)O [BPH-461, 3-fluoro-1-(2-hydroxy-2,2-bisphosphonoethyl)-pyridinium]
γδ T Cell Avg pED50 (M) [5]: 4.16 M | MCF-7 Cell pIC50 (M) ([4]; Table 2, -log10(value, M)): 4.34 M

O=P([O-])(O)C(C[n+]1ccccc1)P(=O)(O)O (stereo not drawn) [BPH-470]
γδ T Cell Avg pED50 (M) [5]: 4.12 M | MCF-7 Cell pIC50 (M) ([4]; Table 2, -log10(value, M)): 4.14 M

CCc1ccc[n+](CC(P(=O)([O-])O)P(=O)(O)O)c1 (stereo not drawn) [BPH-475]
γδ T Cell Avg pED50 (M) [5]: 3.94 M | MCF-7 Cell pIC50 (M) ([4]; Table 2, -log10(value, M)): 4.37 M

CCCCc1ccc[n+](CC(P(=O)([O-])O)P(=O)(O)O)c1 (stereo not drawn) [BPH-476]
γδ T Cell Avg pED50 (M) [5]: 4.00 M | MCF-7 Cell pIC50 (M) ([4]; Table 2, -log10(value, M)): 4.58 M

O=P([O-])(O)C(C[n+]1cccc(F)c1)P(=O)(O)O (stereo not drawn) [BPH-477]
γδ T Cell Avg pED50 (M) [5]: 3.80 M | MCF-7 Cell pIC50 (M) ([4]; Table 2, -log10(value, M)): 4.77 M

O=P([O-])(O)C(C[n+]1cccc(Cc2ccccc2)c1)P(=O)(O)O (stereo not drawn) [BPH-480]
γδ T Cell Avg pED50 (M) [5]: 3.33 M | MCF-7 Cell pIC50 (M) ([4]; Table 2, -log10(value, M)): 3.42 M

O=P([O-])(O)C(C[n+]1ccc(Cc2ccccc2)cc1)P(=O)(O)O (stereo not drawn) [BPH-481]
γδ T Cell Avg pED50 (M) [5]: 3.45 M | MCF-7 Cell pIC50 (M) ([4]; Table 2, -log10(value, M)): 3.90 M

CC(C)(C)C(=O)OCOP(=O)(O)C(C[n+]1ccccc1)P(=O)([O-])O (stereo not drawn) [BPH-656]
γδ T Cell Avg pED50 (M) [5]: 4.29 M | MCF-7 Cell pIC50 (M) ([4]; Table 2, -log10(value, M)): 4.88 M

CC(C)(C)C(=O)OCOP(=O)(O)C(C[n+]1cccc(F)c1)P(=O)([O-])O (stereo not drawn) [BPH-669]
γδ T Cell Avg pED50 (M) [5]: 4.49 M | MCF-7 Cell pIC50 (M) ([4]; Table 2, -log10(value, M)): 4.75 M

CC(C)(C)C(=O)OCOP(=O)(O)C(O)(C[n+]1cccc(F)c1)P(=O)([O-])O (stereo not drawn) [BPH-670]
γδ T Cell Avg pED50 (M) [5]: 4.16 M | MCF-7 Cell pIC50 (M) ([4]; Table 2, -log10(value, M)): 4.64 M

CCCCCCCCCCCCc1ccc[n+](CC(P(=O)([O-])O)P(=O)(O)O)c1 (stereo not drawn) [BPH-677]
γδ T Cell Avg pED50 (M) [5]: 4.88 M | MCF-7 Cell pIC50 (M) ([4]; Table 2, -log10(value, M)): 4.34 M

O=P([O-])(O)C(C[S+]1CCCC1)P(=O)(O)O (stereo not drawn) [BPH-682]
γδ T Cell Avg pED50 (M) [5]: 3.84 M | MCF-7 Cell pIC50 (M) ([4]; Table 2, -log10(value, M)): 4.02 M

C[S+](CCCc1ccccc1)CC(P(=O)([O-])O)P(=O)(O)O (stereo not drawn) [BPH-686]
γδ T Cell Avg pED50 (M) [5]: 3.81 M | MCF-7 Cell pIC50 (M) ([4]; Table 2, -log10(value, M)): 4.24 M

CCCCCCCCCC[S+](C)CC(P(=O)([O-])O)P(=O)(O)O (stereo not drawn) [BPH-687]
γδ T Cell Avg pED50 (M) [5]: 5.09 M | MCF-7 Cell pIC50 (M) ([4]; Table 2, -log10(value, M)): 6.20 M

CCCCCCCCCCCC[S+](C)CC(P(=O)([O-])O)P(=O)(O)O (stereo not drawn) [BPH-688]
EC50 ([5]; Homo sapiens, T-cell, read-out: γδ T Cell Avg pED50 (converted)): 5.62 µM | IC50 ([4]; Homo sapiens, Table 1, experimental, read-out: MCF-7 pIC50 (converted)): 6.31 µM | IC50 ([4]; Homo sapiens, Table 2, -log10(value, M), read-out: MCF-7 Cell pIC50 (converted)): 0.501 µM

CCCN(C)CC(P(=O)(O)O)P(=O)(O)O [BPH-693]
γδ T Cell Avg pED50 (M) [5]: 5.28 M | MCF-7 Cell pIC50 (M) ([4]; Table 2, -log10(value, M)): 5.32 M

CCCCCCCCCCCCCCCC[S+](C)CC(P(=O)([O-])O)P(=O)(O)O (stereo not drawn) [BPH-695]
γδ T Cell Avg pED50 (M) [5]: 5.68 M | MCF-7 Cell pIC50 (M) ([4]; Table 2, -log10(value, M)): 5.95 M

CCCCCCCCCCCCCCCCCC[S+](C)CC(P(=O)([O-])O)P(=O)(O)O (stereo not drawn) [BPH-696]
γδ T Cell Avg pED50 (M) [5]: 4.63 M | MCF-7 Cell pIC50 (M) ([4]; Table 2, -log10(value, M)): 5.85 M

CCCCCCCCOc1ccc[n+](CC(P(=O)([O-])O)P(=O)(O)O)c1 (stereo not drawn) [BPH-714]
γδ T Cell Avg pED50 (M) [5]: 5.29 M | MCF-7 Cell pIC50 (M) ([4]; Table 2, -log10(value, M)): 6.82 M

CCCCOc1ccc[n+](CC(P(=O)([O-])O)P(=O)(O)O)c1 (stereo not drawn) [BPH-721]
γδ T Cell Avg pED50 (M) [5]: 4.10 M | MCF-7 Cell pIC50 (M) ([4]; Table 2, -log10(value, M)): 4.70 M

CCCCCCOc1ccc[n+](CC(P(=O)([O-])O)P(=O)(O)O)c1 (stereo not drawn) [BPH-723]
γδ T Cell Avg pED50 (M) [5]: 4.44 M | MCF-7 Cell pIC50 (M) ([4]; Table 2, -log10(value, M)): 5.76 M

NCCC(O)(P(=O)(O)O)P(=O)(O)O [pamidronate, reference compound]
pIC50 ([4]; Homo sapiens, MCF7, FIG. 2A, read-out: IC50, MCF-7 tumor cell growth inhibition): ~3.52
